Data from paper PMC5391094, “Characterizing the anti-inflammatory and tissue protective actions of a novel Annexin A1 peptide” (PLoS ONE, 2017).
Values joined by “and” are separate entries in the source; they are usually repeats but may differ in a detail not shown here. Identical values can stand only once. Where no end group is shown, it is not given here.

Tests used:
[1] = system: activated human neutrophils; experiment: Neutrophil-mediated degradation (peptide remaining in incubations with activated human neutrophils); format: in vitro ADME; conditions: incubation with activated human neutrophils; compared to parent peptide CR-AnxA1_2-50; mean ± SEM of n = 4 distinct incubations
Experimental: Therefore, we designed a peptide that in addition to having a substitution of Valine25 to Leucine, which we previously found to confer resistance to proteinease-3 and neutrophil elastae, also lacked Alanines at positions 49 and 50 (Fig 1A).
Fig 1 CR-AnxA1_2-48 is resistant to neutrophil mediated cleavage and selectively binds the ALX receptor. (A) Aminoacid sequences for CR-AnxA1_2–50 and CR-AnxA1_2–48 (B) Plots depicting the amount of peptide remaining at the indicated intervals in incubations of human neutrophil with CR-AnxA1_2–50 or CR-AnxA1_2–48. Results are mean ± SEM of n = 4 distinct incubations with different neutrophil preparations. *p < 0.05 versus AnxA1_2–48 incubations. (C,D) Binding affinity of CR-AnxA1_2–48 to (C) human ALX-overexpressing and (D) FPR1-overexpressing HEK cells was assessed in a competitive binding assay using [^125I]–Ac2-26. (E) Agonist activity of CR-AnxA1_2–48 was investigated using β-arrestin stably expressing FPR2/ALX. Results for C-E are mean ± SEM of 3–4 independent experiments. TEXT PRINTED IN THE PICTURE: (C) CR-ANXA12-48: IC50= 20 nM

[2] = molecular target: T1, human ALX receptor (Homo sapiens, UniProt P25090); experiment: Competitive binding assay with [125I-Tyr]-Ac2-26 tracer on ALX-HEK transfected cells; conditions: HEK cells overexpressing human ALX, 1x10^6 cells/ml; tracer 50nM; peptide 0.1nM-10μM; 1h, 4°C; mean of 3-4 independent experiments; read-out: IC50, displacement of 125I labelled Ac2-26 from ALX receptor
T1 construct: expressed in transfected cells; host or cells: HEK cells
T1 sequence (P25090 1-351): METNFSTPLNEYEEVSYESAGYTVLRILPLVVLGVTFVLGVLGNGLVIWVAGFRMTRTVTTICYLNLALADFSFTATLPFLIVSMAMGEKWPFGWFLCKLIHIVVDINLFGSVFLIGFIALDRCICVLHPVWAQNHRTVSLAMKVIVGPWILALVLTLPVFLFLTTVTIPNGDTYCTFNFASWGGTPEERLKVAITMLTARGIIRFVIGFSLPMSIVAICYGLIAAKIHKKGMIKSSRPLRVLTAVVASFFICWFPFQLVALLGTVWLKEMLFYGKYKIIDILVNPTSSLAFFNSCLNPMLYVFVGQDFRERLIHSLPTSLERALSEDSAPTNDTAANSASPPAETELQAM
Experimental: Binding experiments were conducted as in [13]. Briefly FPR1-human embryonic kidney (HEK)–or ALX-HEK—transfected cells (1x10^6 cells/ml) were incubated with increasing concentrations of cold CR-AnxA1_2-50, CR-AnxA1_2-48 (0.1nM-10μM) or PBS and a fixed concentration (50nM) of [^125I-Tyr]-Ac2-26 for (1h, 4°C). Bound and unbound tracer were separated by filtration through Whatman GF/C glass microfibre filters (Kent, United Kingdom) using a vacuum manifold, and the amount of tracer bound to the cells was quantified by counting filters in a gamma-counter.

[3] = system: ALX; conditions: cited from earlier work
Excerpt: The ALX receptor is a G-protein coupled receptor that mediates the biological actions of a number of pro-resolving molecules including the essential fatty acid derived specialized pro-resolving mediators Resolvin D1, Resolvin D3 and Lipoxin A4 [32].

IC50 [2] | Substance | Resistance to neutrophil mediated cleavage (amount of peptide remaining) [1] | Binding affinity to ALX relative to FPR1 [3]
~20 nM and 20 nM | AMVSEFLKQAWFIENEEQEYVQTLKSSKGGPGSAVSPYPTFNPSSDV-NH2 [CR-AnxA1_2-48] | significant increase in resistance to neutrophil mediated cleavage | 
 | fMLF |  | about a log order lower
